# Test results: PMC10321640, “The VIPR2-selective antagonist KS-133 changes macrophage polarization and exerts potent anti-tumor effects as a single agent and in combination with an anti-PD-1 antibody” (PLOS ONE, 2023)
# Where a SMILES comes first, the peptide text is derived from it. Bridges are numbered along the chain shown (N, C = ends).
# Test: Water solubility of the peptides, with or without surfactant (appearance)
# Type: physicochemical
# Method: KS-133 and KS-133(P3S) (a substitution of proline at position three of KS-133 with serine) were synthesized at SCRUM Inc. (Tokyo, Japan) using Fmoc-based solid-phase peptide synthesis as previously reported. After reverse phase–high-performance liquid chromatography (RP–HPLC) purification, structural assignment was performed by matrix-assisted laser desorption ionization–time-of-flight mass spectrometry (MS). All analytical data of peptides in this report are presented in S1 Table. Cremophor EL® (CrEL) (09727–14) was purchased from Nacalai Tesque, Inc. (Kyoto, Japan). The nanoformulation of peptide using CrEL was done by basically according to the method as previously reported. First, KS-133 or KS-133(P3S) (20 mg) was dissolved in DMSO (100 μL), giving a concentration of 200 mg/mL. Next, CrEL (100 μL) was mixed with purified water (350 μL). The peptide solution was added dropwise to the stirring CrEL solution and mixed. Then, the peptide/CrEL solution made into a suspension by repeated vortex agitation and sonication at approximately 50°C. Purified water (450 μL) was added to the peptide/CrEL solution, and the same process was repeated. […]
# Fig 3 Nanoformulation of peptides using CrEL and their characterization. […] The determined particle size of KS-133 NPs was approximately 15.34 nm, and that of KS-133(P3S) NPs was approximately 15.96 nm. […]
compound,measurement,setting,value
CC[C@H](C)[C@H](NC(=O)[C@H](CC(C)C)NC(=O)[C@@H]1CC(=O)NCCCC[C@@H]2NC(=O)[C@@H]3CCCN3C(=O)[C@H](CC(C)C)NC(=O)[C@H](Cc3ccc(O)cc3)NC(=O)[C@@H]3CCCN3C(=O)[C@@H]3CCCN3C(=O)[C@@H](NC(C)=O)CSSC[C@H](NC(=O)[C@H](CC(C)C)NC(=O)[C@H](Cc3ccc(O)cc3)NC2=O)C(=O)N1)C(N)=O [KS-133] (Ac-CPPYLPKYLCDLI-NH2; disulfide 1-10; lactam 7-11),concentration that could be dissolved in DMSO(10%)/CrEL(10%),"Fig 3C, transparent solution immediately after preparation",≥ 20000 µg/mL
same,solubility in aqueous solution / water solubility (in words),without surfactant,poor solubility
